The record followed here is patent EP0504290B1, “INHIBITORS OF PNEUMOCYSTIS CARINII DIHYDROFOLATE REDUCTASE” (CHIRON CORPORATION, priority 1989, dated 1991).

What is called pKi is the negative decadic logarithm of the Ki, by convention in mol/L.

pIC50, pKi: −log10 of the molar value. Read-outs that look alike come from different tables or passages of the source.

One experiment deals with T1, recombinant human DHFR (Homo sapiens, UniProt P00374).
T1 sequence (P00374 1-187): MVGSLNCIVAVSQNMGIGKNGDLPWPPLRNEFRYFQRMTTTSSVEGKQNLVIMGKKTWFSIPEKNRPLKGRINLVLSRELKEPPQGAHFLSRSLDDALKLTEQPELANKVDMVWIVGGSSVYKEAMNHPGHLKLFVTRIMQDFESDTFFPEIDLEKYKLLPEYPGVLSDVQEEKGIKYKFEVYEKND
Kind of experiment: Inhibition of recombinant human DHFR activity by substituted phenyl triazines at 25 µM DHF. The experiment is classed as biochemical.

Experiment [1] addresses Pneumocystis carinii DHFR (Pneumocystis carinii, UniProt P16184). As to the kind of experiment: biochemical.
In the next experiment the target is P. carinii DHFR (Pneumocystis carinii, UniProt P16184). As to the kind of experiment: biochemical.
The mark [2] stands for this setting: ratio of human DHFR Ki to P. carinii DHFR Ki.

Chain of P. carinii DHFR (P16184 whole entry): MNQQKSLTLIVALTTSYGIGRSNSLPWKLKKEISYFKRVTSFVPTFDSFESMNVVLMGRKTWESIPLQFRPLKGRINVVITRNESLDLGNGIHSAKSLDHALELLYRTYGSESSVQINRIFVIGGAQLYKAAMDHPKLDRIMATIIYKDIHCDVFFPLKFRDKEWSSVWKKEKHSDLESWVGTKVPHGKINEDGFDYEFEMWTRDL
Chain of Pneumocystis carinii DHFR (P16184 whole entry): as above

On to `CC1(C)N=C(N)N=C(N)N1c1cccc(CNc2cc(C(N)=O)cc(C(N)=O)c2)c1` [3-CH2NHϕ, 3',5'(CONH2)2], for which the pIC50 at recombinant human DHFR was 5.55. In experiment [1], the pIC50 is 5.97 and the “Selectivity, Ki (human)/Ki(Pc)” value worked out at 4.5.

Consider `CC1(C)N=C(N)N=C(N)N1c1cccc(CNc2ccc(C#N)cc2)c1` [3-CH2NHϕ, 4'CN], for which the pIC50 on recombinant human DHFR was 6.28; in experiment [1], 6.22. For the same compound, in experiment [1] (setting [2]), the “Selectivity, Ki (human)/Ki(Pc)” value came out at 1.5.

On to `CC1(C)N=C(N)N=C(N)N1c1cccc(COc2ccc(Cl)c(Cl)c2Cl)c1` [3-CH2Oϕ, 2',3',4'Cl3], for which the figures for the pIC50 (at recombinant human DHFR; in experiment [1]) were 6.09 and 6.25, respectively. Further, in experiment [1] (setting [2]), the “Selectivity, Ki (human)/Ki(Pc)” value is given as 2.5.

Consider `CC1(C)N=C(N)N=C(N)N1c1cccc(COc2cccc(CO)c2)c1` [3-CH2Oϕ, 3'CH2OH], for which the pIC50 at recombinant human DHFR was 6.01; in experiment [1], 5.74. Moreover, in experiment [1] (setting [2]), the “Selectivity, Ki (human)/Ki(Pc)” value is 0.9.

Regarding `CC(=O)Nc1cccc(OCc2cccc(N3C(N)=NC(N)=NC3(C)C)c2)c1` [3-CH2Oϕ, 3'NHAc], in experiment [1], the pIC50 is 6.64.

In the case of `COc1cccc(OCc2cccc(N3C(N)=NC(N)=NC3(C)C)c2)c1` [3-CH2Oϕ, 3'OCH3], the pIC50 on recombinant human DHFR is 6.44; in experiment [1] it was 6.26. The “Selectivity, Ki (human)/Ki(Pc)” value in experiment [1] (setting [2]) is 1.1.

On to `CC1(C)N=C(N)N=C(N)N1c1cccc(COc2cccc3ccccc23)c1` [3-CH20(a)Naphthyl], for which the pIC50 at recombinant human DHFR was 6.25. In experiment [1], the pIC50 is 6.44 and the “Selectivity, Ki (human)/Ki(Pc)” value is 2.6.

As to `Cc1cccc(OCc2cccc(N3C(N)=NC(N)=NC3(C)C)c2)c1` [3-CH20ϕ, 3'CH3], the pIC50 on recombinant human DHFR is 6.19; in experiment [1] it was 5.85. The “Selectivity, Ki (human)/Ki(Pc)” value in experiment [1] (setting [2]) is recorded as 0.8.

In the case of `CC1(C)N=C(N)N=C(N)N1c1cccc(COc2cccc(Cl)c2)c1` [3-CH20ϕ, 3'Cl], the values for the pIC50 (on recombinant human DHFR; in experiment [1]) were 6.33 and 6.07, respectively. The “Selectivity, Ki (human)/Ki(Pc)” value in experiment [1] (setting [2]) was found to be 0.9.

Take `CCCCCCOc1cccc(N2C(N)=NC(N)=NC2(C)C)c1` [3-O(CH2)5CH3]: the pIC50 was 5.19 at recombinant human DHFR and 5.82 in experiment [1]. Further, the “Selectivity, Ki (human)/Ki(Pc)” value in experiment [1] (setting [2]) was 7.2.

In the case of `CCCCCCCCCCCOc1cccc(N2C(N)=NC(N)=NC2(C)C)c1` [3-O(CH2)10CH3], the figures for the pIC50 (at recombinant human DHFR; in experiment [1]) were 5.06 and 5.88, respectively. For the same compound, in experiment [1] (setting [2]), the “Selectivity, Ki (human)/Ki(Pc)” value is 11.3.

Regarding `CCCCCCCCCCCCCCOc1cccc(N2C(N)=NC(N)=NC2(C)C)c1` [3-O(CH2)13CH3], the pIC50 at recombinant human DHFR was 4.50; in experiment [1] it was 4.63. The “Selectivity, Ki (human)/Ki(Pc)” value in experiment [1] (setting [2]) came out at 2.3.

`CC1(C)N=C(N)N=C(N)N1c1cccc(OCCOc2cccc(C(F)(F)F)c2)c1` [3-O(CH2)20ϕ, 3'CF3] showed a pIC50 in experiment [1] of 5.80.

As for `CC1(C)N=C(N)N=C(N)N1c1ccc(C(F)(F)F)cc1` [-CF3], the pIC50 at P. carinii DHFR (100 µM NADPH, 100 µM DHF, 1 nM P. carinii DHFR, 25 C, read-out: IC5O (100 µM DHF)) was 4.60. Besides, the negative logarithm of the Ki (pKi) on P. carinii DHFR (read-out: Ki) is 7.06.

For the compound `Cc1ccc(N2C(N)=NC(N)=NC2(C)C)cc1` [-CH3], on P. carinii DHFR, the pIC50 is 4.52 and the pKi was 6.98.

On to `CC1(C)N=C(N)N=C(N)N1c1ccc([N+](=O)[O-])cc1` [-NO2], for which, at P. carinii DHFR, the pIC50 was < 2.08 and the negative-log Ki (pKi) was < 5.54.

For `COc1ccc(N2C(N)=NC(N)=NC2(C)C)cc1` [-OCH3], at P. carinii DHFR, the pIC50 was 4.05 and the negative logarithm of the Ki (pKi) is 6.50.

In the case of `CC1(C)N=C(N)N=C(N)N1c1ccc(O)cc1` [-OH], at P. carinii DHFR, the pIC50 was 3.60 and the pKi is 6.06.

Regarding `CCOC(=O)c1cccc(N2C(N)=NC(N)=NC2(C)C)c1` [Substituent 3-CO2Et], the pIC50 on recombinant human DHFR is 3.94; in experiment [1], 3.78. In addition, the “Selectivity, Ki (human)/Ki(Pc)” value in experiment [1] (setting [2]) is recorded as 1.2.

For `CC(=O)c1cccc(N2C(N)=NC(N)=NC2(C)C)c1` [Substituent 3-COCH3], the pIC50 on recombinant human DHFR was 4.68.

Consider `CC1(C)N=C(N)N=C(N)N1c1cccc([N+](=O)[O-])c1` [Substituent 3-NO2], for which the pIC50 at recombinant human DHFR was 5.56; in experiment [1], 5.02. In addition, the “Selectivity, Ki (human)/Ki(Pc)” value in experiment [1] (setting [2]) is listed as 0.7.

Regarding `CC1(C)N=C(N)N=C(N)N1c1cccc(OCc2ccccc2)c1` [Substituent 3-OCH2ϕ], in experiment [1], the pIC50 was 5.34.

`CCOc1cccc(N2C(N)=NC(N)=NC2(C)C)c1` [Substituent 3-OEt]: on recombinant human DHFR, the pIC50 was 4.86.

As for `CC1(C)N=C(N)N=C(N)N1c1ccc(Cl)cc1` [Substituent 4-Cl, 4,6-diamino-1-(p-chlorophenyl)1,2-dihydro-2,2-dimethyl-s-triazine, reference compound], the “times more tightly bound to human DHFR than to P. carinii DHFR” value at recombinant human DHFR (human DHFR versus P. carinii DHFR) is reported as ~2.5 times. At P. carinii DHFR, this compound had a pIC50 of 4.70 and a negative logarithm of the Ki (pKi) of 7.15. In experiment [1], this compound had a pIC50 of 5.12 and a negative logarithm of the Ki (pKi) of 6.96.
